Measured values taken from the supplement of paper PMC10307832.

Assays:
Experiment in all cases: relative viability (nuclei count vs DMSO), 5 days (fraction); higher = more cells survive
[1] = compound: C[C@@]1(C(=O)Nc2ccc(F)nc2)CCCN1c1nc(Nc2cc(C3CC3)n[nH]2)c2cccn2n1 + CC(=O)Nc1cccc(-n2c(=O)n(C3CC3)c(=O)c3c(Nc4ccc(I)cc4F)n(C)c(=O)c(C)c32)c1 [Trametinib] (partner 0.02 µM)
Outline: (§1)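 Values are medians from duplicate plates. Each reflects relative viability, defined as the nuclei count of treated wells over that of vehicle wells. Lung cancer cell lines in 1536-well plates were pin-tool dosed one day after seeding with one drug alone or with a fixed anchor-drug dose plus five library-drug doses (not always all listed) in √10 steps, then fixed, stained and imaged at 4× after 5 days.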

[2] = compound: C[C@@]1(C(=O)Nc2ccc(F)nc2)CCCN1c1nc(Nc2cc(C3CC3)n[nH]2)c2cccn2n1 + Nc1ncn([C@H]2C[C@H](O)[C@@H](CO)O2)c(=O)n1 [Decitabine] (partner 2 µM)
Outline: as §1

[3] = compound: C[C@@]1(C(=O)Nc2ccc(F)nc2)CCCN1c1nc(Nc2cc(C3CC3)n[nH]2)c2cccn2n1 + C[C@]1(O)C[C@@H](c2nc(-c3ccc4ccc(-c5ccccc5)nc4c3)c3c(N)nccn32)C1 [Linsitinib] (partner 1 µM)
Outline: as §1

Motesanib + Luminespib = compound: CC1(C)CNc2cc(NC(=O)c3cccnc3NCc3ccncc3)ccc21 [Motesanib] + CCNC(=O)c1noc(-c2cc(C(C)C)c(O)cc2O)c1-c1ccc(CN2CCOCC2)cc1 [Luminespib] (partner 0.01 µM)
Outline: as §1

Cell Line	relative viability ([1]; first compound 0.04 µM)	relative viability ([1]; first compound 0.1265 µM)	relative viability ([1]; first compound 0.4 µM)	relative viability ([1]; first compound 1.265 µM)	relative viability ([2]; first compound 0.04 µM)	relative viability ([2]; first compound 0.1265 µM)	relative viability ([2]; first compound 0.4 µM)	relative viability ([2]; first compound 1.265 µM)	relative viability ([3]; first compound 0.04 µM)	relative viability ([3]; first compound 0.1265 µM)	relative viability ([3]; first compound 0.4 µM)	relative viability ([3]; first compound 1.265 µM)	relative viability (Motesanib + Luminespib; first compound 0.01 µM)	relative viability (Motesanib + Luminespib; first compound 0.03162 µM)	relative viability (Motesanib + Luminespib; first compound 0.1 µM)	relative viability (Motesanib + Luminespib; first compound 0.3162 µM)	relative viability (Motesanib + Luminespib; first compound 1 µM)
EMC-BAC-2	0.801	0.533	0.443	0.558	0.709	0.737	0.578	0.717	0.808	0.897	0.795	0.884	1.2	1.16	1.14	1.16	1.05
EPLC-272H	0.266	0.252	0.234	0.231	0.348	0.306	0.279	0.336	1.39	1.07	1.12	1.58	0.302	0.268		0.233	0.266
H3255	0.543	0.573	0.494	0.628	0.587	0.622	0.521	0.65	1.14	1.03	0.833	0.986	0.872	0.954	0.942	1.06	0.902
HARA	0.66	0.331	0.483	0.618	0.445	0.436	0.418	0.513	0.947	0.939	0.88	1.12	0.894	0.628	0.786	0.871	0.612
HCC-15	0.237	0.204	0.19	0.264	0.48	0.375	0.43	0.311	0.902	0.885	0.782	0.981	0.33	0.38	0.314	0.278	0.545
HCC-44	0.879	0.871	0.717	1.02	0.957	0.949	0.811	0.84	0.777	0.622	0.605	0.945	1.07	0.964	0.884	1.24	1.2
HCC-78	0.637	1.19	0.334	0.327	0.624	0.564	0.587	0.394	0.541	0.332	0.313	0.259					
HCC-366	0.4	0.197	0.194	0.178	0.315	0.292	0.265	0.265	0.732	0.446	0.459	0.677					
HCC-827	0.518	0.499	0.45	0.557	0.295	0.312	0.351	0.305	0.94	0.973	0.945	0.961	0.777	0.809	0.775	0.75	0.576
HOP-62	0.406	0.303	0.313	0.397	0.181	0.203	0.224	0.173	0.927	0.773	1.06	1.06	0.942	0.834	0.954	0.853	0.935
